This passage reports EC50 and IC50 results from patent US9738644B2, “Chemical compounds, compositions and methods for kinase modulation” (Infinity Pharmaceuticals, Inc., priority 2010, dated 2017).

Like-named read-outs stand apart in the source and are kept apart here.

One assay concerns Balb/c splenic B cells. The assay is described as follows: B cell activation and proliferation assay (Alamar Blue). Format: cell-based. The note with it: Mus musculus. How it is done: The ability of one or more subject compounds to inhibit B cell activation and proliferation is determined according to standard procedures known in the art. For example, an in vitro cellular proliferation assay is established that measures the metabolic activity of live cells. The assay is performed in a 96 well microtiter plate using Alamar Blue reduction. Balb/c splenic B cells are purified over a Ficoll-Paque™ PLUS gradient followed by magnetic cell separation using a MACS B cell Isolation Kit (Miletenyi). Cells are plated in 90 μl at 50,000 cells/well in B Cell Media (RPMI+10% FBS+Penn/Strep+50 μM bME+5 mM HEPES). A compound disclosed herein is diluted in B Cell Media and added in a 10 μl volume. Plates are incubated for 30 min at 37° C. and 5% CO2 (0.2% DMSO final concentration). A 50 μl B cell stimulation cocktail is then added containing either 10 μg/ml LPS or 5 μg/ml F(ab′)2 Donkey anti-mouse IgM plus 2 ng/ml recombinant mouse IL4 in B Cell Media. Plates are incubated for 72 hours at 37° C. and 5% CO2. A volume of 15 μL of Alamar Blue reagent is added to each well and plates are incubated for 5 hours at 37° C. and 5% CO2. Alamar Blue fluoresce is read at 560Ex/590Em, and IC50 or EC50 values are calculated using GraphPad Prism 5.
(In general: Resazurin is reduced to fluorescent resorufin, in cell work by metabolically active cells.)

Another assay concerns the target T1, PI3K α (Homo sapiens, UniProt P42336).
T1 construct: purchased Upstate
The assay is described as follows: In vitro PI3K α inhibition assay. Format: biochemical. As for the experimental part: (§1) Class I PI3-Ks can be either purchased (p110α/p85α, p110β/p85α, p110δ/p85α from Upstate, and p110γ from Sigma) or expressed as previously described (Knight et al., 2004). IC50 values are measured using either a standard TLC assay for lipid kinase activity (described below) or a high-throughput membrane capture assay. Kinase reactions are performed by preparing a reaction mixture containing kinase, inhibitor (2% DMSO final concentration), buffer (25 mM HEPES, pH 7.4, 10 mM MgCl2), and freshly sonicated phosphatidylinositol (100 μg/ml). Reactions are initiated by the addition of ATP containing 10 μCi of γ-32P-ATP to a final concentration of 10 or 100 μM and allowed to proceed for 5 minutes at room temperature. For TLC analysis, reactions are then terminated by the addition of 105 μl 1N HCl followed by 160 μl CHCl3:MeOH (1:1). The biphasic mixture is vortexed, briefly centrifuged, and the organic phase is transferred to a new tube using a gel loading pipette tip precoated with CHCl3. This extract is spotted on TLC plates and developed for 3-4 hours in a 65:35 solution of n-propanol:1M acetic acid. The TLC plates are then dried, exposed to a phosphorimager screen (Storm, Amersham), and quantitated. For each compound, kinase activity is measured at 10-12 inhibitor concentrations representing two-fold dilutions from the highest concentration tested (typically, 200 μM).
(§2) Other commercial kits or systems for assaying PI3-K activities are available. The commercially available kits or systems can be used to screen for inhibitors and/or agonists of PI3-Ks including, but not limited to, PI 3-Kinase α, β, δ, and γ. An exemplary system is PI 3-Kinase (human) HTRF™ Assay from Upstate. […] Briefly, the assay is a time resolved FRET assay that indirectly measures PIP3 product formed by the activity of a PI3-K. The kinase reaction is performed in a microtiter plate (e.g., a 384 well microtiter plate). The total reaction volume is approximately 20 μl per well. In the first step, each well receives 2 μl of test compound in 20% dimethylsulphoxide resulting in a 2% DMSO final concentration. Next, approximately 14.5 μl of a kinase/PIP2 mixture (diluted in 1× reaction buffer) is added per well for a final concentration of 0.25-0.3 μg/ml kinase and 10 μM PIP2. The plate is sealed and incubated for 15 minutes at room temperature. To start the reaction, 3.5 μl of ATP (diluted in 1× reaction buffer) is added per well for a final concentration of 10 μM ATP. The plate is sealed and incubated for 1 hour at room temperature. The reaction is stopped by adding 5 μl of Stop Solution per well and then 5 μl of Detection Mix is added per well. The plate is sealed, incubated for 1 hour at room temperature, and then read on an appropriate plate reader. Data is analyzed and IC50s are generated using GraphPad Prism 5.

Another assay concerns the target T2, PI3K γ (Homo sapiens, UniProt P48736).
T2 construct: purchased Sigma
Briefly: In vitro PI3K γ inhibition assay. Format: biochemical. As for the experimental part: (§3) Class I PI3-Ks can be either purchased (p110α/p85α, p110β/p85α, p110δ/p85α from Upstate, and p110γ from Sigma) or expressed as previously described (Knight et al., 2004). IC50 values are measured using either a standard TLC assay for lipid kinase activity (described below) or a high-throughput membrane capture assay. Kinase reactions are performed by preparing a reaction mixture containing kinase, inhibitor (2% DMSO final concentration), buffer (25 mM HEPES, pH 7.4, 10 mM MgCl2), and freshly sonicated phosphatidylinositol (100 μg/ml). Reactions are initiated by the addition of ATP containing 10 μCi of γ-32P-ATP to a final concentration of 10 or 100 μM and allowed to proceed for 5 minutes at room temperature. For TLC analysis, reactions are then terminated by the addition of 105 μl 1N HCl followed by 160 μl CHCl3:MeOH (1:1). The biphasic mixture is vortexed, briefly centrifuged, and the organic phase is transferred to a new tube using a gel loading pipette tip precoated with CHCl3. This extract is spotted on TLC plates and developed for 3-4 hours in a 65:35 solution of n-propanol:1M acetic acid. The TLC plates are then dried, exposed to a phosphorimager screen (Storm, Amersham), and quantitated. For each compound, kinase activity is measured at 10-12 inhibitor concentrations representing two-fold dilutions from the highest concentration tested (typically, 200 μM). […] Other commercial kits or systems for assaying PI3-K activities are available. The commercially available kits or systems can be used to screen for inhibitors and/or agonists of PI3-Ks including, but not limited to, PI 3-Kinase α, β, δ, and γ. An exemplary system is PI 3-Kinase (human) HTRF™ Assay from Upstate. […] Briefly, the assay is a time resolved FRET assay that indirectly measures PIP3 product formed by the activity of a PI3-K. The kinase reaction is performed in a microtiter plate (e.g., a 384 well microtiter plate). The total reaction volume is approximately 20 μl per well. In the first step, each well receives 2 μl of test compound in 20% dimethylsulphoxide resulting in a 2% DMSO final concentration. Next, approximately 14.5 μl of a kinase/PIP2 mixture (diluted in 1× reaction buffer) is added per well for a final concentration of 0.25-0.3 μg/ml kinase and 10 μM PIP2. The plate is sealed and incubated for 15 minutes at room temperature. To start the reaction, 3.5 μl of ATP (diluted in 1× reaction buffer) is added per well for a final concentration of 10 μM ATP. The plate is sealed and incubated for 1 hour at room temperature. The reaction is stopped by adding 5 μl of Stop Solution per well and then 5 μl of Detection Mix is added per well. The plate is sealed, incubated for 1 hour at room temperature, and then read on an appropriate plate reader. Data is analyzed and IC50s are generated using GraphPad Prism 5.

In a further assay the target is T3, PI3K β (Homo sapiens, UniProt P42338).
T3 construct: purchased Upstate
The assay is described as follows: In vitro PI3K β inhibition assay. The assay is classed as biochemical. How it is done: as §1, §2

In the next assay the target is T4, PI3K δ (Homo sapiens, UniProt O00329).
T4 construct: purchased Upstate
Briefly: In vitro PI3K δ inhibition assay. The assay is classed as biochemical. As for the experimental part: as §3

The mark [1] stands for this setting: read-out: B cell proliferation EC50.
[2] abbreviates: read-out: B cell proliferation EC50 (nM).

T4 sequence (O00329 whole entry): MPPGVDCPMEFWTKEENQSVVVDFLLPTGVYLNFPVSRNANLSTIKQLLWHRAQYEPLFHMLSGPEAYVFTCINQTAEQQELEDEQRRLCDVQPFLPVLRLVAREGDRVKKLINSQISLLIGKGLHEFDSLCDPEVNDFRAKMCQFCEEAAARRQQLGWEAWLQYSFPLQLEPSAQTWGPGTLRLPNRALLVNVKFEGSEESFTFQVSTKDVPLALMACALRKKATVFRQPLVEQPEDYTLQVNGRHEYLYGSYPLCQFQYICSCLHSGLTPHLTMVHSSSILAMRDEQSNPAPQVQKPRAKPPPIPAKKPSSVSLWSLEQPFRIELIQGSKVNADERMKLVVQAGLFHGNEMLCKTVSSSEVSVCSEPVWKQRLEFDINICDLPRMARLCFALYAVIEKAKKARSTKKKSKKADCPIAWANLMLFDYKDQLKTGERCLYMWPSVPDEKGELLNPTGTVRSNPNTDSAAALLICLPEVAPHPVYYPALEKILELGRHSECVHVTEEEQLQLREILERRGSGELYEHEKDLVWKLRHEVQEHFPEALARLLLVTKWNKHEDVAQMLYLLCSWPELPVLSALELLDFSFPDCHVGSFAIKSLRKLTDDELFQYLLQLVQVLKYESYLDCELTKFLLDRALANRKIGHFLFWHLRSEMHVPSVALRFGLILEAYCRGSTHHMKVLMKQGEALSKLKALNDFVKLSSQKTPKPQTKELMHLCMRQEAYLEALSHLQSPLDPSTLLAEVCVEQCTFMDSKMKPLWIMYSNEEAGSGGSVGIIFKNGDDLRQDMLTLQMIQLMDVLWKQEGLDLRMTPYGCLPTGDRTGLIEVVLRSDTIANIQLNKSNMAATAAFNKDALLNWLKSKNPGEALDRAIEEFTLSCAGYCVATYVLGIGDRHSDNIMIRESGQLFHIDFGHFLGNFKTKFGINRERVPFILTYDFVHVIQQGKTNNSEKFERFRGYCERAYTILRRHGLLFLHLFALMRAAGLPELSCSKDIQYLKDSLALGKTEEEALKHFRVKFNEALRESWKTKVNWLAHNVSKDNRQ
T4 sequence (P27986 whole entry partner): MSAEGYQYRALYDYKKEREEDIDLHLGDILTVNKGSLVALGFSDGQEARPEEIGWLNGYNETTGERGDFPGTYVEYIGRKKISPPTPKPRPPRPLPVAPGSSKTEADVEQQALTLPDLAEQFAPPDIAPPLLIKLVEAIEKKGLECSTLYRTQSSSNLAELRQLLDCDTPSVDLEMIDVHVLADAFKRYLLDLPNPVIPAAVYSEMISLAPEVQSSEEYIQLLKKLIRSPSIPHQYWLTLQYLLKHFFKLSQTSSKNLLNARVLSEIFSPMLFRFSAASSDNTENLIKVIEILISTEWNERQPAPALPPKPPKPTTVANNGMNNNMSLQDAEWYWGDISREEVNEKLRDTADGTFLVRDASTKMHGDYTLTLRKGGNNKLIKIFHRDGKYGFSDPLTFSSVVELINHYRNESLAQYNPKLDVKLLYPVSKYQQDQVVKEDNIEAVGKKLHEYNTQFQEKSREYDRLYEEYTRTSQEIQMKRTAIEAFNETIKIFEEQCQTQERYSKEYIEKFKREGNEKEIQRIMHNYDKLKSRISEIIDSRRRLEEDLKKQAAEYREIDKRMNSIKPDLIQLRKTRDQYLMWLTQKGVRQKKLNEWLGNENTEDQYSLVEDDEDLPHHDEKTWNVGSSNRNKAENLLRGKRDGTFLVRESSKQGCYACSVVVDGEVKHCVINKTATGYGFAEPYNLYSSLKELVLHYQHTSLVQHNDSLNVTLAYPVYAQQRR
T3 sequence (P42338 whole entry): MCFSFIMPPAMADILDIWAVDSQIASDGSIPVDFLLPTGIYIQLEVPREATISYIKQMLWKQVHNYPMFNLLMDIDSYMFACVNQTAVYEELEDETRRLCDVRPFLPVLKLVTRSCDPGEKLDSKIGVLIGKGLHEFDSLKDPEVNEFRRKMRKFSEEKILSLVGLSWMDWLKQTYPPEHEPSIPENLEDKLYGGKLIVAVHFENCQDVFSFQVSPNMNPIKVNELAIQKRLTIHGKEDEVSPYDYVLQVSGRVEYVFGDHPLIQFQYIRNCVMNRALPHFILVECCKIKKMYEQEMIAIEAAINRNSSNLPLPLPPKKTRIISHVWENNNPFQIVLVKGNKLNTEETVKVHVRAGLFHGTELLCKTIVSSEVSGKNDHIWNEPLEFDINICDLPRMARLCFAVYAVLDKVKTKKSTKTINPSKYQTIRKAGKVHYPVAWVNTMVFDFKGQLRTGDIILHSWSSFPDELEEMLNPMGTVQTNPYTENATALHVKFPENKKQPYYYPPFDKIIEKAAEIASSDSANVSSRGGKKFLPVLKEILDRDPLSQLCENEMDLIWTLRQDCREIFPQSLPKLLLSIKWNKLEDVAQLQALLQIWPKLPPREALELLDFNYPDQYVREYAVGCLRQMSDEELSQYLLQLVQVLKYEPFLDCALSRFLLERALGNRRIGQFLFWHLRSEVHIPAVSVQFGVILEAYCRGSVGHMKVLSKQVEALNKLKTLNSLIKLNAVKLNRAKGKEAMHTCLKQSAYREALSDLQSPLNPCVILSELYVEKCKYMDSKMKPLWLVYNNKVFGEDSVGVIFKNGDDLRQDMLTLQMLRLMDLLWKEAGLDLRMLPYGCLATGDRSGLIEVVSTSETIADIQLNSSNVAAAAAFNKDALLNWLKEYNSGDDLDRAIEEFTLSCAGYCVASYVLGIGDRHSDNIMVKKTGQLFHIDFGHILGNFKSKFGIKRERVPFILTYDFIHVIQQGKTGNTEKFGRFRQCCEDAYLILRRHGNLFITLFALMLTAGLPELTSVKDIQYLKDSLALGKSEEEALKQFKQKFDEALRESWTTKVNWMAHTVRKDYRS
T3 sequence (P27986 whole entry partner): as the sequence (P27986 whole entry partner) above
T1 sequence (P42336 whole entry): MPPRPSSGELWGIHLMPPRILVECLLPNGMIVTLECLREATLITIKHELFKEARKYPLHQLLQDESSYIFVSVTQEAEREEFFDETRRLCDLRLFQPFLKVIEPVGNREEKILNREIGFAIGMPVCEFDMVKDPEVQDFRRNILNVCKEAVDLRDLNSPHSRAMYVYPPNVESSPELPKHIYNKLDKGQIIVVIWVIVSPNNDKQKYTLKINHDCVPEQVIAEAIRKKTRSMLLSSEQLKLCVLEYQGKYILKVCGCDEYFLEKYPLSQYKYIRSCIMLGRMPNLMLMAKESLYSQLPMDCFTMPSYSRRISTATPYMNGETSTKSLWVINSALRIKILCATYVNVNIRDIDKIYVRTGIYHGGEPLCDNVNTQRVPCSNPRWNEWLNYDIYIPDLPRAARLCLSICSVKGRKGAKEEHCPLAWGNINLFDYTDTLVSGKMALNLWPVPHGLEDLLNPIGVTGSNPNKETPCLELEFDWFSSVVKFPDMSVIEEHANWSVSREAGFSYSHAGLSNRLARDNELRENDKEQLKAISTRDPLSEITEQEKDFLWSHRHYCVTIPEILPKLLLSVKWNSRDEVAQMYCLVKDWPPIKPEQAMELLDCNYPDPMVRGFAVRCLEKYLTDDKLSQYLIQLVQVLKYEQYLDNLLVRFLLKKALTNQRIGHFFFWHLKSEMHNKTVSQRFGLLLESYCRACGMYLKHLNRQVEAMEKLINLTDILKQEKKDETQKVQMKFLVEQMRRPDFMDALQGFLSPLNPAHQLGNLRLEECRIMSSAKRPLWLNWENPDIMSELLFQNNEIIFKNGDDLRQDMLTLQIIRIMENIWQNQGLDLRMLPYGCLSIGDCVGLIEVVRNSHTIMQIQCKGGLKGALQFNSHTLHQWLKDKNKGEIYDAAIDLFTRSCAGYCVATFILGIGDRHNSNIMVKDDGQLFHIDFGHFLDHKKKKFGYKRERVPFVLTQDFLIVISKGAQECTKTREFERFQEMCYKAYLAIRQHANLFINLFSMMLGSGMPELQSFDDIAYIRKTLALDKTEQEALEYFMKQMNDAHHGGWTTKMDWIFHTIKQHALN
T1 sequence (P27986 whole entry partner): as the sequence (P27986 whole entry partner) above
T2 sequence (P48736 whole entry): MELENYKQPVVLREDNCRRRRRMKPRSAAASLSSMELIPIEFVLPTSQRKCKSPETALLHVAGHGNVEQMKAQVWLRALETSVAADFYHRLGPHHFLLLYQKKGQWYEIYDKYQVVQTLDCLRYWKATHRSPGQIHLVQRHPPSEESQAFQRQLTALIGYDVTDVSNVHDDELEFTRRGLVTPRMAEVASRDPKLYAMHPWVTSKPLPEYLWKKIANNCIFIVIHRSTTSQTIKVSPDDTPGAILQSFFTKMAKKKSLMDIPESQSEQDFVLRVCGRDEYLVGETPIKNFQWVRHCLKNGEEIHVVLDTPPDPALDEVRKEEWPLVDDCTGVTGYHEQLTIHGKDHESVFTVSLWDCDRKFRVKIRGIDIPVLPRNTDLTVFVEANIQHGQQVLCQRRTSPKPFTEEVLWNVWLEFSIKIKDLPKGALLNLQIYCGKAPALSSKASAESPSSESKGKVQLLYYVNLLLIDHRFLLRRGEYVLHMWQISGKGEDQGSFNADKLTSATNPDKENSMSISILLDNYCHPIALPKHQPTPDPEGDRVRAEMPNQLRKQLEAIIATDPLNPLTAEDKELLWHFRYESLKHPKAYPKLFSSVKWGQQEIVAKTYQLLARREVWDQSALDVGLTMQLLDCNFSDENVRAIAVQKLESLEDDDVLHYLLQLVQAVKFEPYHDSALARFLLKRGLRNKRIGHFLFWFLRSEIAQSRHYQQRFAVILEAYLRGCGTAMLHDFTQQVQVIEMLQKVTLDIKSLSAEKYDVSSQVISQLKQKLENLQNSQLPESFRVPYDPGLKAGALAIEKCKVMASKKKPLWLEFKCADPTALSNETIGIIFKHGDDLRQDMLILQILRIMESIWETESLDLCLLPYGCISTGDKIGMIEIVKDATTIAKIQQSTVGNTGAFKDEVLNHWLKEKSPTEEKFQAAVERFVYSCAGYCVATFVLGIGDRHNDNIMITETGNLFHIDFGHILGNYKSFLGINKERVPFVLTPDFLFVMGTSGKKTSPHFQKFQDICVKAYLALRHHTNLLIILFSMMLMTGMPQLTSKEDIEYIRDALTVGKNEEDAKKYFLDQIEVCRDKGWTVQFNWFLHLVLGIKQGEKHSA

As to `C[C@@H](Nc1ncnc2[nH]cnc12)c1cc2cccc(-c3cccnc3)c2c(=O)n1-c1ccccc1` (stereo in doubt) [Compound 7], the EC50 in the assay with Balb/c splenic B cells (setting [1]) was less than 100 nM. Besides, the IC50 (usually the midpoint of a concentration-inhibition curve) against PI3K α was less than 10000 nM; against PI3K γ, less than 100 nM; at PI3K β, less than 10000 nM; at PI3K δ it was less than 100 nM.
Take `C=Cc1cccc2cc(C(C)Nc3ncnc4[nH]cnc34)n(-c3ccccc3)c(=O)c12` (stereo in doubt) [Compound 8, (S)-3-(1-((9H-purin-6-yl)amino)ethyl)-2-phenyl-8-vinylisoquinolin-1(2H)-one]: in the assay on Balb/c splenic B cells (setting [1]), the EC50 is less than 100 nM. Also, the IC50 is less than 10000 nM against PI3K α, less than 100 nM at PI3K γ, less than 10000 nM at PI3K β and less than 100 nM against PI3K δ.
On to `CCc1cccc2cc(C(C)Nc3ncnc4[nH]cnc34)n(-c3ccccc3)c(=O)c12` (stereo in doubt) [Compound 9, (S)-3-(1-((9H-purin-6-yl)amino)ethyl)-8-ethyl-2-phenylisoquinolin-1(2H)-one], for which, in the assay with Balb/c splenic B cells (setting [1]), the EC50 is less than 100 nM. Also, the IC50 on PI3K α is less than 10000 nM; against PI3K γ, less than 100 nM; against PI3K β, less than 10000 nM; at PI3K δ, less than 100 nM.
In the case of `C[C@@H](Nc1ncnc2[nH]cnc12)c1cc2cccc(-c3cccnc3)c2c(=O)n1C1CC1` (stereo in doubt) [Compound 13], the EC50 with Balb/c splenic B cells (setting [2]) is less than 100 nM. Moreover, the half-inhibitory concentration (IC50) against PI3K α is less than 10000 nM; at PI3K γ, less than 100 nM; at PI3K β, less than 1000 nM; against PI3K δ, less than 100 nM.
With `CC(Nc1ncnc2[nH]cnc12)c1cc2cccc(C#N)c2c(=O)n1-c1ccccc1` (stereo in doubt) [Compound 16, (S)-3-(1-((9H-purin-6-yl)amino)ethyl)-1-oxo-2-phenyl-1,2-dihydroisoquinoline-8-carbonitrile], the EC50 with Balb/c splenic B cells (setting [1]) was less than 100 nM. For the same compound, the IC50 was greater than 10000 nM on PI3K α, less than 100 nM at PI3K γ, less than 10000 nM against PI3K β and less than 100 nM at PI3K δ.
As to `C[C@@H](Nc1ncnc2[nH]cnc12)c1cc2cccc(N(C)C)c2c(=O)n1-c1ccccc1` (stereo in doubt) [Compound 17], the EC50 in the assay with Balb/c splenic B cells (setting [1]) was less than 100 nM. Besides, the half-maximal inhibitory concentration (IC50) is greater than 10000 nM against PI3K α, less than 10000 nM at PI3K γ, greater than 10000 nM against PI3K β and less than 10000 nM against PI3K δ.
With `C[C@@H](Nc1ncnc2[nH]cnc12)c1cc2cccc(-c3cc[nH]n3)c2c(=O)n1-c1ccccc1` (stereo in doubt) [Compound 18], the EC50 with Balb/c splenic B cells (setting [1]) was less than 100 nM. Moreover, the half-maximal inhibitory concentration (IC50) is greater than 10000 nM against PI3K α, less than 100 nM on PI3K γ, greater than 10000 nM at PI3K β and less than 100 nM at PI3K δ.
With `C[C@@H](Nc1ncnc2[nH]cnc12)c1cc2cccc(-c3cnn(C)c3)c2c(=O)n1-c1ccccc1` (stereo in doubt) [Compound 19], the EC50 with Balb/c splenic B cells (setting [1]) is less than 100 nM. Further, the half-inhibitory concentration (IC50) against PI3K α is greater than 10000 nM; on PI3K γ, less than 100 nM; at PI3K β it was greater than 10000 nM; on PI3K δ, less than 100 nM.
For the compound `C[C@@H](Nc1ncnc2[nH]cnc12)c1cc2cccc(-c3cnn(C)c3)c2c(=O)n1C1CC1` (stereo in doubt) [Compound 20], the EC50 in the assay with Balb/c splenic B cells (setting [1]) is less than 100 nM. Also, the IC50 at PI3K α was less than 10000 nM; on PI3K γ, less than 1000 nM; against PI3K β it was less than 10000 nM; on PI3K δ, less than 100 nM.
Regarding `C[C@@H](Nc1ncnc2[nH]cnc12)c1cc2cccc(-c3ccncc3)c2c(=O)n1-c1ccccc1` (stereo in doubt) [Compound 21], in the assay with Balb/c splenic B cells (setting [1]), the EC50 was less than 100 nM. Further, the concentration for half-maximal inhibition (IC50) against PI3K α was less than 10000 nM; on PI3K γ, less than 100 nM; against PI3K β, less than 10000 nM; against PI3K δ, less than 100 nM.
Consider `C[C@@H](Nc1ncnc2[nH]cnc12)c1cc2cccc(-c3cccc(F)c3)c2c(=O)n1-c1ccccc1` (stereo in doubt) [Compound 25], for which, in the assay on Balb/c splenic B cells (setting [2]), the EC50 is less than 100 nM. Also, the IC50 on PI3K α is less than 10000 nM; on PI3K γ, less than 100 nM; against PI3K β it was less than 10000 nM; on PI3K δ, less than 100 nM.
As for `C[C@@H](Nc1ncnc2[nH]cnc12)c1cc2cccc(N3CCOCC3)c2c(=O)n1-c1ccccc1` (stereo in doubt) [Compound 39], the IC50 is greater than 10000 nM against PI3K α, less than 1000 nM against PI3K γ, greater than 10000 nM at PI3K β and less than 1000 nM against PI3K δ.
`C[C@@H](Nc1ncnc2[nH]cnc12)c1cc2cccc(NC3CCOCC3)c2c(=O)n1-c1ccccc1` (stereo in doubt) [Compound 40]: the half-inhibitory concentration (IC50) against PI3K α was greater than 10000 nM; against PI3K γ, less than 10000 nM; against PI3K β, greater than 10000 nM; against PI3K δ, less than 1000 nM.
`C[C@@H](Nc1ncnc2[nH]cnc12)c1cc2cccc(-c3cn[nH]c3)c2c(=O)n1C1CC1` [Compound 12]: in the assay on Balb/c splenic B cells (setting [1]), the EC50 was less than 100 nM. Further, the half-maximal inhibitory concentration (IC50) is less than 1000 nM at PI3K α, less than 100 nM against PI3K γ, less than 1000 nM at PI3K β and less than 100 nM against PI3K δ.
